The source of these data is patent USRE32935E, “Non-toxic organotin stabilizers for vinyl chloride polymers” (M&T Chemicals, Inc., priority 1985, dated 1989).

One data set relates to rats. The conditions noted are these: force-feeding, table of Neumann; cited from earlier work.
For data set [1] the following is noted: prior art statements; cited from earlier work.
A short description of data set [2]: relative acute toxicity of the isooctylmercaptoacetate derivatives. It is filed as in vivo. The source says:
This is contrary to the generally accepted, although inaccurate, generalization that a monoalkyltin compound is less toxic than the corresponding di- and trialkyltin compounds. […] This finding directly contradicts data concerning the relative toxicities of mono-, di- and triorganotin compounds that were published prior to March, 1973, the filing date of Applicant's earliest application disclosing the present stabilizer compositions.

A short description of data set [3]: migration from milled/pressed polyvinyl chloride sheet into extractants (colorimetric tin analysis). It is filed as physicochemical. The conditions noted are these: 10 days, 40° C; distilled water, 3% acetic acid, peanut oil, 10% ethanol; 1.5 parts stabilizer. The procedure: A mixture containing 100 parts of a commercially available vinyl chloride homopolymer(Solvic 223), 0.02 part of a half glycol ester -half calcium soap of montanic acid (available as Hoechst Wax OP) together with 1.5 parts of mono-n-octyltin-S,S',S"-tris(isooctylmercaptoacetate) was blended by placing the components on a 2-roll mill wherein the roll temperature was between 160° and 170° C. During the three minute milling period a continuous sheet formed around one of the rollers and was removed. The sheet measured 1.3 m.m. in thickness and about 300 cm.^2 in area. The sheet was pressed at a temperature of 170° C. to obtain a thickness of 1.2 m.m. The total pressing time, including a two minute preheating period, was five minutes. Square samples measurng 30 cm.^2 in total surface area were immersed in one of the extractants for 10 days, during which time the temperature of the extractant was maintained at 40° C. The extractants employed were distilled water, a 3% aqueous solution of acetic acid, peanut oil and a 10% by weight aqueous solution of ethanol. […] The quantity of peanut oil was 30 c.c.
The migration of stabilizer from the polyvinyl chloride sample into the extractant was determined by measuring the concentration of tin in the extractant using colormetric analysis of the tin - pyrocatechol violet complex. […]

A short description of data set [4]: extraction of tin from blow molded vinyl chloride polymer bottles. The conditions noted are these: 49° C. In kind it is physicochemical. The procedure:
A number of 16 ounce (475 cc) capacity cylindrical bottles were prepared by blow molding using the following formulation: […]
The three stabilizers evaluated were n-octyltin-S,S',S"-tri(isooctyl mercaptoacetate), di-n-octyltin-S,S'-bis(isooctyl mercaptoacetate) and a mixture containing equal parts by weight of these two compounds.
The bottles were filled with the desired extractant and then placed in an oven maintained at a temperature of 49° C. for the time periods specified in the following table. A portion of the contents of the bottle was then analyzed to determine the concentration of tin.

The test system of a further data set is albino rats. The experiment in a line: acute oral median lethal dose in young male albino rats. It is filed as in vivo, rat. Here is the method: Young albino rats were used as the test animals. All animals were kept under observation for five days prior to experimental use, during which period they were checked for general physical health and suitability as test animals. The animals were housed in stock cages and were permitted a standard laboratory diet plus water ad libitum, except during the 16-hour period immediately prior to oral intubation, when food was withheld.
Selected groups of four male albino rats each were administered the undiluted test material at dose levels of 900, 1350, 2,025 and 3,038 mg. per kilogram of body weight. All doses were administered directly into the stomachs of the rats using a hypodermic syringe equipped with a ball-tipped intubating needle.
After oral administration of the test material, the rats were housed individually in suspended, wire-mesh cages and observed for the following 14 days. A necropsy was conducted on any animal which died during the study and on all animals sacrificed at the end of the 14-day observation period.
The acute oral median lethal dose (LD50) was calculated using the techniques of Weil, Thompson and Thompson and Weil as reported in the following references: […]

A further data set relates to beagle dogs. Kind of data set: 13 week feeding study in beagle dogs. It is filed as in vivo, dog. Here is the method: A second feeding study was conducted for a period of 13 weeks using beagle dogs to determine the maximum concentration of the mono-n-octyltin mercaptoacetic acid esters of this invention which can be present in the food of these animals without causing any observable toxicological effect. This concentration level is referred to as the "no-effect level" by the United States Food and Drug Administration. A stabilizer of this invention mono-n-octyltin S,S',S"-tris(isooctylmercaptoacetate) was added to the food consumed by the dogs in amounts of 0, 100, 300 and 1,000 parts per million. […] This level of toxicity is considered to be unexpectedly low for an organotin compound.
The criteria employed to determine the absence of toxicological effects included general appearance, health, growth and food intake; blood analyses for enzyme activity and serum protein; kidney damage by urine analysis; change in weight of internal organs and presence of the tin compound in the kidneys, bones, brain, liver and blood.

For data set [5] the following is noted: compared with di- and trioctyltin chlorides, cited from earlier work.
The mark [6] stands for this setting: 3% Acetic Acid (aqueous), 24 hours.
Setting [7] is: 3% Acetic Acid (aqueous), 48 hours.
Setting [8] is: 3% Acetic Acid (aqueous), 72 hours.

Where two headings read alike, the source gives them in different places.

For the compound bis(tri-n-octyltin) sulfate, in the data set on rats, the “LD50 (lethal dose for 1/2 the population)” value is on record as “greater than 6,000 mg per kilogram of body weight”.
As to `[Cl][Sn][Cl]` [stannous chloride], in data set [1], the “toxicity (in words)” value is given as “relatively little, if any, toxicity”.
In the case of `CCCCCCC[CH2][Sn]([S]CC(=O)OCCCCCC(C)C)([S]CC(=O)OCCCCCC(C)C)[S]CC(=O)OCCCCCC(C)C` [A, mono-n-octyltin-S,S',S"--tris(isooctyl mercaptoacetate)], in data set [2] (isooctylmercaptoacetate derivatives, mono- vs di- and tri-n-octyltin), the “relative acute toxicity (in words)” value is reported as “the least toxic”. Moreover, the “toxicity relative to corresponding di-n-octyltin compound (in words)” value in data set [2] (vs di-n-octyltin compound of Gloskey patent) was “less toxic than the corresponding di-n-octyltin compound”. The “amount of stabilizer extracted” value in data set [3] is at most 0.05 mg. per square decimeter. The “Tin Content” value in data set [4] (setting [6]) is recorded as 0.02 ppm; in data set [4] (setting [7]), 0.03 ppm; in data set [4] (setting [8]) it was 0.02 ppm; in data set [4] (8% Ethanol (aqueous), 24 hours), 0.00 ppm; in data set [4] (50% Ethanol, 24 hours) it was 0.01 ppm; in data set [4] (50% Ethanol, 48 hours), 0.02 ppm. Besides, the “Tin Content” value in data set [4] (50% Ethanol, 72 hours) is listed as 0.02 ppm; in data set [4] (Distilled Water, 72 hours) it was 0.00 ppm; in data set [4] (Distilled Water, 96 hours), 0.00 ppm; in data set [4] (Distilled Water, 120 hours), 0.00 ppm; in data set [4] (Heptane, 6 hours), 0.02 ppm; in data set [4] (Heptane, 8 hours) it was 0.03 ppm. Besides, the “Tin Content” value in data set [4] (Heptane, 10 hours) came to 0.03 ppm. Also, the “acute oral median lethal dose (LD50)” value with albino rats (male albino rats, oral intubation, undiluted, 14 days observation) is recorded as 2.48 g. per kilogram of weight. In the data set with albino rats (vs other conventional organotin compounds employed as non-toxic stabilizers), the “LD50 relative to other conventional organotin stabilizers (in words)” value is recorded as “considerably higher than the values for other conventional organotin compounds”. This compound came in with a no-effect level in the data set on beagle dogs (beagle dogs, 13 weeks, in food) of 300 parts per million. For the same compound, the “no effect level (in words)” value in the data set with beagle dogs (long term feeding studies) is recorded as “sufficiently low”.
As for di-n-octyltin maleate, the “LD50 (lethal dose for 1/2 the population)” value in the data set on rats is reported as 4,500 mg per kilogram of body weight.
`CCCCCCC[CH2][Sn]([CH2]CCCCCCC)([S]CC(=O)OCCCCCC(C)C)[S]CC(=O)OCCCCCC(C)C` [B, di-n-octyltin-S,S'--bis(isooctyl mercaptoacetate), reference compound]: the “Tin Content” value in data set [4] (setting [6]) is reported as 0.00 ppm; in data set [4] (setting [7]) it was 0.00 ppm; in data set [4] (setting [8]) it was 0.00 ppm; in data set [4] (8% Ethanol (aqueous), 24 hours), 0.00 ppm; in data set [4] (50% Ethanol, 24 hours), 0.03 ppm; in data set [4] (50% Ethanol, 48 hours) it was 0.05 ppm. Besides, the “Tin Content” value in data set [4] (50% Ethanol, 72 hours) stood at 0.03 ppm; in data set [4] (Distilled Water, 72 hours), 0.00 ppm; in data set [4] (Distilled Water, 96 hours) it was 0.00 ppm; in data set [4] (Distilled Water, 120 hours) it was 0.00 ppm; in data set [4] (Heptane, 6 hours), 0.03 ppm; in data set [4] (Heptane, 8 hours), 0.02 ppm. For the same compound, the “Tin Content” value in data set [4] (Heptane, 10 hours) is reported as 0.02 ppm. The “LD50 (lethal dose for 1/2 the population)” value in the data set on rats was 1975 mg per kilogram of body weight.
As for `CCCCCCC[CH2][Sn]([Cl])([Cl])[Cl]` [monooctyltin trichloride], the results for the “acute oral toxicity (relative, in words)” value in data set [5] and in data set [5] (listed as mono-n-octyltin trichloride) were “greater than the toxicity of either dioctyltin dichloride or trioctyltin chloride” and “significantly more severe than the corresponding di- or tri-n-octyltin chlorides”, respectively.
